Values of other authors, collected in PMC9363195, “Preclinical Pharmacokinetics, Biodistribution, and Acute Toxicity Evaluation of Caerin 1.9 Peptide in Sprague Dawley Rats” (Evidence-based Complementary and Alternative Medicine : eCAM, 2022).

Tested on: TC-1 cells
Details: cited from earlier work
Description: Caerin 1.1 and Caerin 1.9 are stable.

For Caerin 1.1, the “prevention of development of TC-1 cells after heating” value (heated at 100°C for 5 minutes) is listed as “equally effective”, the activity after incubation (room temperature, 7 days, low pH environment (pH5.5-7)) is listed as “remained active” and the “bioactivity after incubation in temperature-sensitive gel” value (temperature-sensitive gel, room temperature, 30 days) is listed as “maintained a similar degree of bioactivity”.
